In data set [1] the target is T1, Tumor necrosis factor (Homo sapiens, UniProt P01375). Nature of the data set: Inhibition of human TNFalpha induced NFkappaB activation in HEK293T cells after 6 hrs by dual-glo luciferase assay. The class given is cell-based. The following applies: for inhibition: HEK-293T.
The target in data set [2] is T1, Tumor necrosis factor. Nature of the data set: Inhibition of human TNFalpha expressed in Escherichia coli assessed as decrease in TNF-alpha trimer level after 15 mins by SDS-PAGE analysis.
The target of data set [3] is T1, Tumor necrosis factor. As to the kind of experiment: Inhibition of human TNFalpha expressed in Escherichia coli assessed as trimer to dimer transition at 5 uM measured after 12 hrs by mass spectrometry.
Data set [4] in a line: Cytotoxicity against HEK293T cells at >300 uM after 24 hrs by CCK8 assay. The class given is cell-based. The settings on record: human, hek-293t. A general note: Tetrazolium assays rely on reduction of a dye to a coloured formazan, in cell work by metabolically active cells.
Data set [5] has as its target T1, Tumor necrosis factor. As to the kind of experiment: Inhibition of human TNFalpha expressed in Escherichia coli assessed as increase in TNF-alpha dimer level after 15 mins by SDS-PAGE analysis.
Data set [6] addresses T1, Tumor necrosis factor. Nature of the data set: Inhibition of human TNFalpha expressed in Escherichia coli assessed as increase in TNFalpha monomer level after 15 mins by SDS-PAGE analysis.
The target of data set [7] is T1, Tumor necrosis factor. Nature of the data set: Binding affinity to human TNFalpha expressed in Escherichia coli by surface plasmon resonance method.
Data set [8] is described as follows: Cytotoxicity against HEK293T cells assessed as cell death at 30 uM after 24 hrs by CCK8 assay. The class given is cell-based. The settings on record: human, hek-293t.

pIC50, pKd: −log10 of the molar value. Activity calls are given as the source filed them. The rule behind the calls is not given here.

The results in this text go back to ChEMBL document CHEMBL3804771, “De novo design of helical peptides to inhibit tumor necrosis factor- by disrupting its trimer formation” (Medchemcomm, 2016).

T1 sequence (P01375 whole entry): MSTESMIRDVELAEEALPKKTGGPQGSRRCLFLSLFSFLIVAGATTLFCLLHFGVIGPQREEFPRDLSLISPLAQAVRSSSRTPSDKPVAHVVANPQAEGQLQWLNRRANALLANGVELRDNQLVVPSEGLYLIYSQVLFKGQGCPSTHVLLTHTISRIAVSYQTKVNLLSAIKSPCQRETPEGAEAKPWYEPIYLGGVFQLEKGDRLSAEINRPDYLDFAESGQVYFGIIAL

`CC[C@@H](C)[C@H](NC(=O)[C@H](CCC(=O)O)NC(=O)[C@H](CCC(N)=O)NC(=O)[C@@H](Cc1c[nH]c2ccccc12)NC(=O)[C@@H](CC(N)=O)NC(=O)[C@@H](CCCNC(=N)N)NC(=O)[C@@H](CCCCN)NC(=O)[C@@H](CC(C)C)NC(=O)[C@@H](CCC(=O)O)NC(=O)[C@@H](CC(=O)O)NC(=O)[C@@H](CCC(=O)O)NC(=O)[C@@H](C)NC(=O)[C@@H](N)CC(=O)O)C(=O)N[C@@H](CCC(N)=O)C(=O)N[C@@H](CCC(=O)O)C(=O)N[C@@H](C)C(=O)N[C@@H](CCC(N)=O)C(=O)N[C@@H](CCC(N)=O)C(=O)N[C@H](C(=O)N[C@@H](CC(C)C)C(=O)N[C@@H](CCC(N)=O)C(=O)N[C@@H](CCSC)C(=O)N[C@@H](Cc1ccccc1)C(=O)N[C@@H](Cc1ccccc1)C(=O)N[C@@H](CCC(=O)O)C(=O)N[C@@H](Cc1c[nH]c2ccccc12)C(=O)N[C@H](Cc1c[nH]c2ccccc12)C(=O)N[C@H](CCC(N)=O)C(=O)N[C@@H](CCCCN)C(=O)N[C@H](CC(=O)O)C(=O)O)[C@@H](C)CC`: on Tumor necrosis factor [1], the inhibition entry was “inactive”.
Still for that read-out and setting: the result for `CC[C@@H](C)[C@H](NC(=O)[C@H](CCC(N)=O)NC(=O)[C@H](CCC(N)=O)NC(=O)[C@H](Cc1ccccc1)NC(=O)[C@H](CCC(=O)O)NC(=O)[C@H](CCC(N)=O)NC(=O)[C@@H](NC(=O)[C@H](CCC(=O)O)NC(=O)[C@H](CCC(N)=O)NC(=O)[C@@H](Cc1c[nH]c2ccccc12)NC(=O)[C@H](CC(N)=O)NC(=O)[C@H](CCCNC(=N)N)NC(=O)[C@H](CCCCN)NC(=O)[C@H](CC(C)C)NC(=O)[C@H](CCC(=O)O)NC(=O)[C@H](CC(=O)O)NC(=O)[C@H](CCC(=O)O)NC(=O)[C@H](C)NC(=O)[C@H](N)CC(=O)O)[C@@H](C)CC)C(=O)N[C@@H](C)C(=O)N[C@@H](CCC(N)=O)C(=O)N[C@@H](CCSC)C(=O)N[C@@H](Cc1ccccc1)C(=O)N[C@@H](Cc1ccccc1)C(=O)N[C@@H](CCC(=O)O)C(=O)N[C@@H](Cc1c[nH]c2ccccc12)C(=O)N[C@@H](Cc1c[nH]c2ccccc12)C(=O)N[C@@H](CCC(N)=O)C(=O)N[C@H](CCCCN)C(=O)N[C@@H](CC(=O)O)C(=O)O` reads “inactive”.
A word on the pIC50: it is −log10 of the IC50, conventionally taken in molar units. A lower pIC50 goes with a large IC50. One may read the pKd as −log10 of the Kd, conventionally taken in molar units. Higher therefore signals a small Kd. For the compound H-QEKWFAEQYARMVLEWIEKELKESL-OH, at Tumor necrosis factor [1], the pIC50 is 4.68. Further, the inhibition entry on Tumor necrosis factor [1] is “Dose-dependent effect”. Further, the inhibition entry on Tumor necrosis factor [2], on Tumor necrosis factor [3], on Tumor necrosis factor [5] and on Tumor necrosis factor [6] was “Active” each time. In addition, the Activity entry in data set [4] is given as “Non-toxic”. Besides, the pKd on Tumor necrosis factor [7] is 6.30.
A word on the mortality: it is the percentage killed. Turning to `Cc1cc2occ(CN(C)CCN(C)Cc3cn(-c4cccc(C(F)(F)F)c4)c4ccccc34)c(=O)c2cc1C`, the mortality in data set [8] is 50%.
H-SEQELKQIFQQVFQWWQLWEQFEKQ-OH: the inhibition result at Tumor necrosis factor [2], on Tumor necrosis factor [3], on Tumor necrosis factor [5] and at Tumor necrosis factor [6] was “Active” throughout.
H-LREQRLKEHLQEIQIFEQWLQIFQEQFQKF-OH: the inhibition entry on Tumor necrosis factor [1] was “inactive”. The Activity result in data set [4] was “Non-toxic”. Moreover, the pKd on Tumor necrosis factor [7] is 6.30.
On Tumor necrosis factor [1], `CC[C@H](C)[C@H](NC(=O)[C@H](CCC(N)=O)NC(=O)[C@H](CCC(N)=O)NC(=O)[C@H](Cc1ccccc1)NC(=O)[C@H](CCC(=O)O)NC(=O)[C@H](CCC(N)=O)NC(=O)[C@@H](NC(=O)[C@H](CCC(=O)O)NC(=O)[C@H](CCC(N)=O)NC(=O)[C@H](Cc1c[nH]c2ccccc12)NC(=O)[C@H](CC(N)=O)NC(=O)[C@H](CCCNC(=N)N)NC(=O)[C@H](CCCCN)NC(=O)[C@H](CC(C)C)NC(=O)[C@H](CCC(=O)O)NC(=O)[C@H](CC(=O)O)NC(=O)[C@H](CCC(=O)O)NC(=O)[C@H](C)NC(=O)[C@@H](N)CC(=O)O)[C@@H](C)CC)C(=O)N[C@@H](CC(C)C)C(=O)N[C@@H](CCC(N)=O)C(=O)N[C@@H](CCSC)C(=O)N[C@@H](Cc1ccccc1)C(=O)N[C@@H](Cc1ccccc1)C(=O)N[C@@H](CCC(=O)O)C(=O)N[C@@H](Cc1c[nH]c2ccccc12)C(=O)N[C@@H](Cc1c[nH]c2ccccc12)C(=O)N[C@@H](CCC(N)=O)C(=O)N[C@@H](CCCCN)C(=O)N[C@@H](CC(=O)O)C(=O)O` showed a pIC50 of 4.92. Further, in data set [4], the Activity result is “Non-toxic”. On Tumor necrosis factor [7], this compound gave a pKd of 6.41.
With H-DAEDELKRNWQAIQEFQQILQMFFEWWQKD-OH, the inhibition result at Tumor necrosis factor [1] is “inactive”.
Consider `CC[C@@H](C)[C@@H](NC(=O)[C@@H](CCC(N)=O)NC(=O)[C@@H](CCC(N)=O)NC(=O)[C@@H](Cc1ccccc1)NC(=O)[C@@H](CCC(=O)O)NC(=O)[C@@H](CCC(N)=O)NC(=O)[C@H](NC(=O)[C@@H](CCC(=O)O)NC(=O)[C@@H](CCC(N)=O)NC(=O)[C@H](Cc1c[nH]c2ccccc12)NC(=O)[C@H](CC(N)=O)NC(=O)[C@H](CCCNC(=N)N)NC(=O)[C@H](CCCCN)NC(=O)[C@H](CC(C)C)NC(=O)[C@H](CCC(=O)O)NC(=O)[C@H](CC(=O)O)NC(=O)[C@H](CCC(=O)O)NC(=O)[C@H](C)NC(=O)[C@H](N)CC(=O)O)[C@@H](C)CC)C(=O)N[C@H](CC(C)C)C(=O)N[C@H](CCC(N)=O)C(=O)N[C@H](CCSC)C(=O)N[C@H](Cc1ccccc1)C(=O)N[C@H](Cc1ccccc1)C(=O)N[C@H](CCC(=O)O)C(=O)N[C@H](Cc1c[nH]c2ccccc12)C(=O)N[C@@H](Cc1c[nH]c2ccccc12)C(=O)N[C@@H](CCC(N)=O)C(=O)N[C@H](CCCCN)C(=O)N[C@@H](CC(=O)O)C(=O)O`, for which the inhibition entry at Tumor necrosis factor [1] is “Dose-dependent effect”. In addition, the inhibition result at Tumor necrosis factor [2], on Tumor necrosis factor [3], on Tumor necrosis factor [5] and on Tumor necrosis factor [6] was “Active” each time.
The compound H-RQQEELYKKWLQEFWKWFQIALQLD-OH gave a pIC50 at Tumor necrosis factor [1] of 4.49. Moreover, the inhibition entry at Tumor necrosis factor [1] was “Dose-dependent effect”. The inhibition result at Tumor necrosis factor [2], on Tumor necrosis factor [3], on Tumor necrosis factor [5] and on Tumor necrosis factor [6] was “Active” throughout. The Activity entry in data set [4] is listed as “Non-toxic”. For the same compound, the pKd at Tumor necrosis factor [7] was 6.30.
